According to US20080069849A1, “Novel Antimicrobial Peptides” (Dermagen AB, priority 2004, published 2008):
Where a SMILES comes first, the peptide text is derived from it. Where no end group is shown, it is not given here. [ ]: non-standard residue; d: D form.

Each compound was assayed on erythrocytes (assay: Hemolysis assay (Example 11)). Conditions: not given.
Format: cell-based
Parameters: % Hemolysis Mean: dose or concentration left out as unconfirmed
Description: EDTA-blood was centrifuged at 800 g for 10 min, whereafter plasma and buffy coat were removed. The erythrocytes were washed three times and resuspended in 5% PBS, pH 7.4. The cells were then incubated with end-over-end rotation for 1 h at 37° C. in the presence of peptides ([…]). 2% Triton X-100 (Sigma-Aldrich) served as positive control. The samples were then centrifuged at 800 g for 10 min. The absorbance of hemoglobin release was measured at λ 540 nm and is in the plot expressed as % of TritonX-100 induced hemolysis.
CNYIEELRRQLARALHKGLA [Peptide 47] was tested, and the “hemolytic activity” value was “low hemolytic activity”.
CNYITELLRQLARASKKGLA [Peptide 39] was tested, and the “hemolytic activity” value was “low hemolytic activity”.
With CKYITLLRRQLLRALKRGLR [Peptide 73] the “hemolytic activity” value was “low hemolytic activity”.

Same assay, conditions: 1 h
CNYIEELLRQRARALKKGLA [Peptide 168] was tested, and the “% Hemolysis Mean” value was 2.573%.
In the case of CNYITELKRQLARALHKGLA [Peptide 143], the “% Hemolysis Mean” value is reported as 3.450%.
CNYIEELKRQLARALKKGLA [Peptide 146] was tested, and the “% Hemolysis Mean” value was 2.521%.
In the case of CNYIEELLRQLARATKKGLA [Peptide 153], the “% Hemolysis Mean” value is reported as 1.755%.
In the case of CNYITELRRQKLRLLHKGLA [Peptide 170], the “% Hemolysis Mean” value is reported as 2.211%.
For CNYITELLRQLARASHKGLA [Peptide 147], the “% Hemolysis Mean” value was 2.555%.
For CNYITELLRQRARALHKGLA [Peptide 165], the “% Hemolysis Mean” value was 2.659%.
CNYIEELRRQLARALHKGLA [Peptide 47] was tested, and the “% Hemolysis Mean” value was 2.323%.
For CC[C@@H](C)[C@@H](NC(=O)[C@@H](Cc1ccc(O)cc1)NC(=O)[C@@H](CC(N)=O)NC(=O)[C@H](N)CS)C(=O)N[C@@H](C(=O)N[C@H](CCC(=O)O)C(=O)N[C@H](CC(C)C)C(=O)N[C@H](CC(C)C)C(=O)N[C@H](CCCNC(=N)N)C(=O)N[C@H](CCC(N)=O)C(=O)N[C@H](CC(C)C)C(=O)N[C@H](C)C(=O)N[C@H](CCCNC(=N)N)C(=O)N[C@H](C)C(=O)N[C@H](CO)C(=O)N[C@H](CCCCN)C(=O)N[C@H](CCCCN)C(=O)NCC(=O)N[C@H](CC(C)C)C(=O)N[C@H](C)C(=O)O)[C@H](C)O [Peptide 183] (H-[dC][dN][dY][dI][dT][dE][dL][dL][dR][dQ][dL][dA][dR][dA][dS][dK][dK]G[dL][dA]-OH; N-terminus and C-terminus assumed), the “% Hemolysis Mean” value was 5.128%.
In the case of CNYITELKRQLARALKKGLA [Peptide 144], the “% Hemolysis Mean” value is reported as 3.597%.
CNYITELLRQLARARKKGLA [Peptide 158] was tested, and the “% Hemolysis Mean” value was 3.829%.
CNYITELRRQKLRLLKKGLA [Peptide 169] was tested, and the “% Hemolysis Mean” value was 2.512%.
For CNYIEELLRQLARARHKGLA [Peptide 157], the “% Hemolysis Mean” value was 1.282%.
With CNYIEELLRQLARARKKGLA [Peptide 159] the “% Hemolysis Mean” value was 1.841%.
With CNYITELLRQLARANKKGLA [Peptide 154] the “% Hemolysis Mean” value was 2.564%.
For CNYITELLRQLARAQKKGLA [Peptide 155], the “% Hemolysis Mean” value was 5.817%.
With CNYIKELLRQKLRASHLGLA [Peptide 171] the “% Hemolysis Mean” value was 2.383%.
In the case of CNYITELLRQKARALKKGLA [Peptide 163], the “% Hemolysis Mean” value is reported as 2.478%.
In the case of CC[C@@H](C)[C@@H](NC(=O)[C@@H](Cc1ccc(O)cc1)NC(=O)[C@@H](CC(N)=O)NC(=O)[C@H](N)CS)C(=O)N[C@H](CCC(=O)O)C(=O)N[C@H](CCC(=O)O)C(=O)N[C@H](CC(C)C)C(=O)N[C@H](CCCNC(=N)N)C(=O)N[C@H](CCCNC(=N)N)C(=O)N[C@H](CCC(N)=O)C(=O)N[C@H](CC(C)C)C(=O)N[C@H](C)C(=O)N[C@H](CCCNC(=N)N)C(=O)N[C@H](C)C(=O)N[C@H](CC(C)C)C(=O)N[C@H](Cc1c[nH]cn1)C(=O)N[C@H](CCCCN)C(=O)NCC(=O)N[C@H](CC(C)C)C(=O)N[C@H](C)C(=O)O [Peptide 184] (H-[dC][dN][dY][dI][dE][dE][dL][dR][dR][dQ][dL][dA][dR][dA][dL][dH][dK]G[dL][dA]-OH; N-terminus and C-terminus assumed), the “% Hemolysis Mean” value is reported as 3.235%.
CNYITELRRQLARALHKGLA [Peptide 140] was tested, and the “% Hemolysis Mean” value was 5.145%.
CNYIEELLRQLARASKKGLA [Peptide 149] was tested, and the “% Hemolysis Mean” value was 1.506%.
With CNYIEELRRQLARALHKWLA [Peptide 173] the “% Hemolysis Mean” value was 8.148%.
With CNYITELLRQLARARHKGLA [Peptide 156] the “% Hemolysis Mean” value was 3.321%.
For CNYITELLRQLARATHKGLA [Peptide 150], the “% Hemolysis Mean” value was 3.777%.
With CNYIEELLRQRARALHKGLA [Peptide 166] the “% Hemolysis Mean” value was 2.117%.
CNYITELLRQLARAKKKGLA [Peptide 160] was tested, and the “% Hemolysis Mean” value was 2.512%.
With CNYIEELLRQLARATHKGLA [Peptide 151] the “% Hemolysis Mean” value was 1.626%.
CNYITELRRQLARALKKGLA [Peptide 141] was tested, and the “% Hemolysis Mean” value was 17.716%.
